Measured values: ChEMBL document CHEMBL1139968, “Cytotoxic effects of C-glycosides in HOS and HeLa cell lines” (2007)

Tests used:
HeLa = assay: Antiproliferative activity against human HeLa cells by SRB assay; assay type: functional
HOS = assay: Antiproliferative activity against human HOS cells by SRB assay; assay type: functional

| Compound | GI50 (HeLa) [µM] | GI50 (HOS) [µM] |
| --- | --- | --- |
| CC[C@@H]1O[C@H](COCc2ccccc2)[C@@H](OCc2ccccc2)[C@H](OCc2ccccc2)[C@H]1O | 19.8 | 34.2 |
| CC(C)C[C@@H]1O[C@H](COCc2ccccc2)[C@@H](OCc2ccccc2)[C@H](OCc2ccccc2)C1=O | > 50 | > 50 |
| CCC[C@@H]1O[C@H](COCc2ccccc2)[C@@H](OCc2ccccc2)[C@H](OCc2ccccc2)C1=O | > 50 | > 50 |
| c1ccc(COC[C@H]2O[C@H]3C[C@H]3[C@@H](OCc3ccccc3)[C@@H]2OCc2ccccc2)cc1 | > 50 | > 50 |
| OCC[C@@H]1O[C@H](COCc2ccccc2)[C@@H](OCc2ccccc2)[C@H](OCc2ccccc2)[C@H]1O | 30.2 | 39.7 |
| CCC[C@@H]1O[C@H](COCc2ccc3ccccc3c2)[C@@H](OCc2ccc3ccccc3c2)[C@H](OCc2ccc3ccccc3c2)[C@H]1O | > 50 | > 50 |
| CCCCCCCCCCCCCCCOC[C@H]1O[C@@H](CCC)[C@H](O)[C@@H](OCCCCCCCCCCCCCCC)[C@@H]1OCCCCCCCCCCCCCCC | > 50 | > 50 |
| OC[C@@H]1O[C@H](COCc2ccccc2)[C@@H](OCc2ccccc2)[C@H](OCc2ccccc2)[C@H]1O | 25.8 | 27.3 |
| CCC[C@@H]1O[C@H](COCc2ccccc2)[C@@H](OCc2ccccc2)[C@H](OCc2ccccc2)[C@H]1O | 18.9 | 38.6 |
| CC(C)C[C@@H]1O[C@H](COCc2ccccc2)[C@@H](OCc2ccccc2)[C@H](OCc2ccccc2)[C@@H]1O | 24.6 | 26.3 |
| C=CC[C@@H]1O[C@H](COCc2ccccc2)[C@@H](OCc2ccccc2)[C@H](OCc2ccccc2)C1=O | > 50 | 7.6 |
| O[C@@H]1[C@@H](OCc2ccccc2)[C@H](OCc2ccccc2)[C@@H](COCc2ccccc2)O[C@H]1c1ccccc1 | > 50 | > 50 |
| CC(=O)OC[C@H]1O[C@@H](Cc2ccccc2)[C@H](OC(C)=O)[C@@H](OCc2ccccc2)[C@@H]1OC(C)=O | > 50 | > 50 |
| c1ccc(COC[C@H]2OCC[C@@H](OCc3ccccc3)[C@@H]2OCc2ccccc2)cc1 | 33.3 | 22.2 |
| O[C@@H]1[C@@H](OCc2ccccc2)[C@H](OCc2ccccc2)[C@@H](COCc2ccccc2)O[C@H]1Cc1ccccc1 | 17.4 | 29.2 |
| CCC[C@H]1O[C@H](COCc2ccccc2)[C@@H](OCc2ccccc2)[C@H](OCc2ccccc2)[C@H]1O | 17.4 | 23.6 |
| CC[C@@H]1O[C@H](COCc2ccccc2)[C@@H](OCc2ccccc2)[C@H](OCc2ccccc2)C1=O | > 50 | 4.3 |
| C=CC[C@@H]1O[C@H](COCc2ccccc2)[C@@H](OCc2ccccc2)[C@H](OCc2ccccc2)[C@H]1OCc1ccccc1 | > 50 | > 50 |
| c1ccc(COC[C@H]2O[C@@H](Cc3ccccc3)[C@H](OCc3ccccc3)[C@@H](OCc3ccccc3)[C@@H]2OCc2ccccc2)cc1 | > 50 | > 50 |
| CC(C)C[C@@H]1O[C@H](COCc2ccccc2)[C@@H](OCc2ccccc2)[C@H](OCc2ccccc2)[C@H]1O | > 50 | 45.2 |
| OCCC[C@@H]1O[C@H](COCc2ccccc2)[C@@H](OCc2ccccc2)[C@H](OCc2ccccc2)[C@H]1O | > 50 | > 50 |
| CCCCC[C@@H]1O[C@H](COCc2ccccc2)[C@@H](OCc2ccccc2)[C@H](OCc2ccccc2)C1=O | > 50 | > 50 |
| CCC[C@@H]1O[C@H](CO)[C@@H](O)[C@H](O)[C@H]1O | > 50 | > 50 |
| CC(=O)O[C@@H]1[C@@H](OCc2ccccc2)[C@H](OCc2ccccc2)[C@@H](COCc2ccccc2)O[C@H]1C | > 50 | 8.8 |
| O[C@@H]1[C@@H](OCc2ccccc2)[C@H](OCc2ccccc2)[C@@H](COCc2ccccc2)O[C@H]1CC1CC1 | > 50 | > 50 |
| O[C@@H]1[C@@H](OCc2ccccc2)[C@H](OCc2ccccc2)[C@@H](COCc2ccccc2)O[C@@H]1CC1CCCCC1 | > 50 | 20.7 |

| Compound | GI50 (HeLa) [µM] | GI50 (HOS) [µM] |
| --- | --- | --- |
| O[C@@H]1[C@@H](OCc2ccccc2)[C@H](OCc2ccccc2)[C@@H](COCc2ccccc2)O[C@H]1CC1CCCCC1 | 9.5 | 4.4 |
| CCC[C@@H]1O[C@H](COCc2ccc(F)cc2)[C@@H](OCc2ccc(F)cc2)[C@H](OCc2ccc(F)cc2)[C@H]1O | 12.3 | 17.2 |
| CCC[C@H]1O[C@H](COCc2ccc(F)cc2)[C@@H](OCc2ccc(F)cc2)[C@H](OCc2ccc(F)cc2)[C@H]1O | 5.6 | > 50 |
| C=CC[C@@H]1O[C@H](COCc2ccccc2)[C@@H](OCc2ccccc2)[C@H](OCc2ccccc2)[C@H]1OC(C)=O | > 50 | 11 |
| c1ccc(COC[C@H]2O[C@@H]3C[C@@H]3[C@@H](OCc3ccccc3)[C@@H]2OCc2ccccc2)cc1 | > 50 | > 50 |
| CCCCOC[C@H]1O[C@@H](CCC)[C@H](O)[C@@H](OCCCC)C1OCCCC (some centres undefined) | > 50 | > 50 |
| O[C@H]1CO[C@H](COCc2ccccc2)[C@@H](OCc2ccccc2)[C@@H]1OCc1ccccc1 | > 50 | 37.9 |
| CC(=O)O[C@@H]1[C@@H](OC(C)=O)[C@H](Cc2ccccc2)O[C@H](COCc2ccccc2)[C@H]1OC(C)=O | > 50 | > 50 |
| CCCCOC[C@H]1O[C@@H](CCC)C(=O)[C@@H](OCCCC)[C@@H]1OCCCC | > 50 | > 50 |
| ClC1(Cl)[C@@H]2[C@@H](OCc3ccccc3)[C@H](OCc3ccccc3)[C@@H](COCc3ccccc3)O[C@@H]21 | > 50 | 1.6 |
| CC(C)C[C@H]1O[C@H](COCc2ccccc2)[C@@H](OCc2ccccc2)[C@H](OCc2ccccc2)[C@H]1O | 43.9 | 44.5 |
| CCC[C@H]1O[C@H](COCc2ccccc2)[C@@H](OCc2ccccc2)[C@H](OCc2ccccc2)C1=O | > 50 | > 50 |
| C[C@@H]1O[C@H](COCc2ccccc2)[C@@H](OCc2ccccc2)[C@H](OCc2ccccc2)C1=O | > 50 | > 50 |
| CC(=O)O[C@@H]1[C@@H](OCc2ccccc2)[C@H](OC(C)=O)[C@@H](COCc2ccccc2)O[C@H]1Cc1ccccc1 | 5.4 | 6.1 |
| CCC[C@@H]1O[C@H](COCc2ccc3ccccc3c2)[C@@H](OCc2ccc3ccccc3c2)[C@H](OCc2ccc3ccccc3c2)[C@H]1OC(C)=O | > 50 | > 50 |
| C=CC[C@@H]1O[C@H](COCc2ccccc2)[C@@H](OCc2ccccc2)[C@H](OCc2ccccc2)[C@H]1O | 26.2 | 44.1 |
| CC(=O)O[C@@H]1[C@@H](OCc2ccccc2)[C@H](OCc2ccccc2)[C@@H](COCc2ccccc2)O[C@@H]1CC(C)C | > 50 | > 50 |
| CC[C@H]1O[C@H](COCc2ccccc2)[C@@H](OCc2ccccc2)[C@H](OCc2ccccc2)[C@H]1O | > 50 | > 50 |
| CCCC[C@@H]1O[C@H](COCc2ccccc2)[C@@H](OCc2ccccc2)[C@H](OCc2ccccc2)[C@H]1O | > 50 | 40.1 |
| CC[C@@H]1O[C@H](COCc2ccccc2)[C@@H](OCc2ccccc2)[C@H](OCc2ccccc2)[C@H]1OC(C)=O | > 50 | > 50 |
| O=C1[C@H](Cc2ccccc2)O[C@H](COCc2ccccc2)[C@@H](OCc2ccccc2)[C@@H]1OCc1ccccc1 | > 50 | > 50 |
| CCC[C@@H]1O[C@H](COCc2ccccc2)[C@@H](OCc2ccccc2)[C@H](OCc2ccccc2)[C@@H]1O | 23.3 | > 50 |
| C[C@@H]1O[C@H](COCc2ccccc2)[C@@H](OCc2ccccc2)[C@H](OCc2ccccc2)[C@H]1O | > 50 | > 50 |
| O[C@@H]1[C@@H](O)[C@H](Cc2ccccc2)O[C@H](COCc2ccccc2)[C@H]1OCc1ccccc1 | 47.9 | 33.5 |
| OC[C@H]1O[C@@H](Cc2ccccc2)[C@H](O)[C@@H](OCc2ccccc2)[C@@H]1OCc1ccccc1 | 38 | 31.6 |
| CCCCCCCCCCCCCCCOC[C@H]1O[C@H](CCC)[C@H](O)[C@@H](OCCCCCCCCCCCCCCC)[C@@H]1OCCCCCCCCCCCCCCC | 28.7 | 29.9 |
